In PMC10373102 (Molecular microbiology, 2011):

Biological target: T1, CtdQ; acylating aldehyde dehydrogenase (ADA) (Acidovorax sp. JS42, UniProt A1W2K2)
T1 sequence (A1W2K2 1-302): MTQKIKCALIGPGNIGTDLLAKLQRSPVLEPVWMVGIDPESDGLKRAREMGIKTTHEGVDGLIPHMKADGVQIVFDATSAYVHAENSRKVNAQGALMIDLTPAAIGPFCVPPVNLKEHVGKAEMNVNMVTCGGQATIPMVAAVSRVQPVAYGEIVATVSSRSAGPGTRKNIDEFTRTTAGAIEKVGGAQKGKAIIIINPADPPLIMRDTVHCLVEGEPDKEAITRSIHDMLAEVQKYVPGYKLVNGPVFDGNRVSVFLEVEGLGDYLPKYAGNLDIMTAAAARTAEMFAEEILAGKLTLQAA
Assay: enzyme assay in extract of E. coli expressing ctdQ
Format: biochemical
Conditions: details in SI

SMILES | enzyme assay in extract of E. coli expressing ctdQ
CC=O [acetaldehyde] | the enzyme was equally active with acetaldehyde and propionaldehyde
CCC=O [propionaldehyde] | the enzyme was equally active with acetaldehyde and propionaldehyde
